Numbers after ± are expanded uncertainties. Values belong to the compound of their own block, whether it stands above or below them.
Columns and labels:
[1] = refractive index (Na D-line) (dimensionless); details: 303.15 K; 101.33 kPa; Liquid
[2] = 303.15 K; 101 kPa; Liquid
[3] = xn = mol fraction of the nth substance listed; details: 303.15 K, 101 kPa, Liquid
[4] = refractive index (Na D-line) (dimensionless); xn = mol fraction of the nth substance listed; details: 303.15 K, 101 kPa, Liquid

SMILES: CCCCO [butan-1-ol]
refractive index [1]: 1.3946 ± 0.0007
mass density [2]: 802 ± 0.8 kg/m3
speed of sound [2]: 1231 ± 4.7 m/s

SMILES: CCCCO [butan-1-ol] + C[S+](C)[O-]
mass density ([3]; x2 = 0): 802 ± 0.8 kg/m3
speed of sound ([3]; x2 = 0): 1231 ± 4.7 m/s
refractive index ([4]; x2 = 0): 1.3946 ± 0.0007

SMILES: C[S+](C)[O-] [dimethyl sulfoxide]
refractive index [1]: 1.4751 ± 0.0007
mass density [2]: 1094.9 ± 1.3 kg/m3
speed of sound [2]: 1490.9 ± 5 m/s

SMILES: C[S+](C)[O-] [dimethyl sulfoxide] + CCCCCCCO
mass density ([3]; x1 = 1): 1094.9 ± 1.3 kg/m3
speed of sound ([3]; x1 = 1): 1490.9 ± 7 m/s
refractive index ([4]; x1 = 1): 1.4751 ± 0.0007

Results, then the compound that gave them:

mass density ([3]; x1 = 1): 1094.9 ± 2.4 kg/m3
speed of sound ([3]; x1 = 1): 1490.9 ± 7 m/s
refractive index ([4]; x1 = 1): 1.4751 ± 0.0007
SMILES: C[S+](C)[O-] [dimethyl sulfoxide] + CCCCCCO

mass density ([3]; x1 = 0.1034): 825.7 ± 0.8 kg/m3
speed of sound ([3]; x1 = 0.1034): 1247.5 ± 4.7 m/s
mass density ([3]; x1 = 0.2122): 851.8 ± 0.9 kg/m3
speed of sound ([3]; x1 = 0.2122): 1267.5 ± 4.8 m/s
mass density ([3]; x1 = 0.3156): 877.9 ± 0.9 kg/m3
speed of sound ([3]; x1 = 0.3156): 1288 ± 4.8 m/s
mass density ([3]; x1 = 0.4009): 900.5 ± 1 kg/m3
speed of sound ([3]; x1 = 0.4009): 1305.5 ± 4.8 m/s
mass density ([3]; x1 = 0.5073): 930.1 ± 1 kg/m3
speed of sound ([3]; x1 = 0.5073): 1327.3 ± 4.8 m/s
mass density ([3]; x1 = 0.6002): 957.2 ± 1 kg/m3
speed of sound ([3]; x1 = 0.6002): 1347.5 ± 4.8 m/s
mass density ([3]; x1 = 0.6957): 986.6 ± 1.1 kg/m3
speed of sound ([3]; x1 = 0.6957): 1371 ± 4.9 m/s
mass density ([3]; x1 = 0.8112): 1024.6 ± 1.2 kg/m3
speed of sound ([3]; x1 = 0.8112): 1406.6 ± 4.9 m/s
mass density ([3]; x1 = 0.9051): 1058.4 ± 1.2 kg/m3
speed of sound ([3]; x1 = 0.9051): 1443 ± 5 m/s
mass density ([3]; x1 = 1): 1094.9 ± 1.3 kg/m3
speed of sound ([3]; x1 = 1): 1490.9 ± 5 m/s
refractive index ([4]; x1 = 0.1034): 1.4001 ± 0.0007
refractive index ([4]; x1 = 0.2122): 1.4064 ± 0.0007
refractive index ([4]; x1 = 0.3156): 1.4127 ± 0.0007
refractive index ([4]; x1 = 0.4009): 1.4185 ± 0.0007
refractive index ([4]; x1 = 0.5073): 1.4263 ± 0.0007
refractive index ([4]; x1 = 0.6002): 1.4335 ± 0.0007
refractive index ([4]; x1 = 0.6957): 1.4417 ± 0.0007
refractive index ([4]; x1 = 0.8112): 1.4527 ± 0.0007
refractive index ([4]; x1 = 0.9051): 1.4633 ± 0.0007
refractive index ([4]; x1 = 1): 1.4751 ± 0.0007
SMILES: C[S+](C)[O-] [dimethyl sulfoxide] + CCCCO

refractive index [1]: 1.4201 ± 0.0007
mass density [2]: 815.7 ± 0.9 kg/m3
speed of sound [2]: 1306 ± 6.6 m/s
SMILES: CCCCCCCO [heptan-1-ol]

mass density ([3]; x2 = 0): 815.7 ± 0.9 kg/m3
speed of sound ([3]; x2 = 0): 1306 ± 6.6 m/s
mass density ([3]; x2 = 0.1096): 825.7 ± 0.9 kg/m3
speed of sound ([3]; x2 = 0.1096): 1312.3 ± 6.6 m/s
mass density ([3]; x2 = 0.2535): 846 ± 0.9 kg/m3
speed of sound ([3]; x2 = 0.2535): 1319.5 ± 6.6 m/s
mass density ([3]; x2 = 0.3668): 866.8 ± 1 kg/m3
speed of sound ([3]; x2 = 0.3668): 1329.9 ± 6.6 m/s
mass density ([3]; x2 = 0.474): 889.4 ± 1 kg/m3
speed of sound ([3]; x2 = 0.474): 1338 ± 6.6 m/s
mass density ([3]; x2 = 0.5788): 915.8 ± 1 kg/m3
speed of sound ([3]; x2 = 0.5788): 1351.5 ± 6.7 m/s
mass density ([3]; x2 = 0.6708): 943.2 ± 1.1 kg/m3
speed of sound ([3]; x2 = 0.6708): 1369 ± 6.7 m/s
mass density ([3]; x2 = 0.7598): 973.2 ± 1.1 kg/m3
speed of sound ([3]; x2 = 0.7598): 1384.6 ± 6.7 m/s
mass density ([3]; x2 = 0.8376): 1003.5 ± 1.2 kg/m3
speed of sound ([3]; x2 = 0.8376): 1409.3 ± 6.8 m/s
mass density ([3]; x2 = 0.9031): 1034.5 ± 1.2 kg/m3
speed of sound ([3]; x2 = 0.9031): 1428.6 ± 6.8 m/s
refractive index ([4]; x2 = 0): 1.4201 ± 0.0007
refractive index ([4]; x2 = 0.1096): 1.4209 ± 0.0007
refractive index ([4]; x2 = 0.2535): 1.4242 ± 0.0007
refractive index ([4]; x2 = 0.3668): 1.4277 ± 0.0007
refractive index ([4]; x2 = 0.474): 1.4312 ± 0.0007
refractive index ([4]; x2 = 0.5788): 1.4355 ± 0.0007
refractive index ([4]; x2 = 0.6708): 1.4402 ± 0.0007
refractive index ([4]; x2 = 0.7598): 1.4458 ± 0.0007
refractive index ([4]; x2 = 0.8376): 1.4528 ± 0.0007
refractive index ([4]; x2 = 0.9031): 1.4615 ± 0.0007
SMILES: CCCCCCCO [heptan-1-ol] + C[S+](C)[O-]

refractive index [1]: 1.4134 ± 0.0008
mass density [2]: 811.8 ± 1.8 kg/m3
speed of sound [2]: 1282 ± 6.7 m/s
SMILES: CCCCCCO [hexan-1-ol]

mass density ([3]; x2 = 0): 811.8 ± 1.8 kg/m3
speed of sound ([3]; x2 = 0): 1282 ± 6.7 m/s
mass density ([3]; x2 = 0.1336): 832.6 ± 1.8 kg/m3
speed of sound ([3]; x2 = 0.1336): 1300.8 ± 6.7 m/s
mass density ([3]; x2 = 0.2712): 857.6 ± 1.9 kg/m3
speed of sound ([3]; x2 = 0.2712): 1311.6 ± 6.7 m/s
mass density ([3]; x2 = 0.3808): 880.7 ± 1.9 kg/m3
speed of sound ([3]; x2 = 0.3808): 1325.3 ± 6.7 m/s
mass density ([3]; x2 = 0.4814): 904.6 ± 1.9 kg/m3
speed of sound ([3]; x2 = 0.4814): 1336.5 ± 6.7 m/s
mass density ([3]; x2 = 0.5762): 929.7 ± 2 kg/m3
speed of sound ([3]; x2 = 0.5762): 1349.5 ± 6.7 m/s
mass density ([3]; x2 = 0.666): 956.3 ± 2 kg/m3
speed of sound ([3]; x2 = 0.666): 1368 ± 6.8 m/s
mass density ([3]; x2 = 0.765): 989.2 ± 2.1 kg/m3
speed of sound ([3]; x2 = 0.765): 1395 ± 6.8 m/s
mass density ([3]; x2 = 0.848): 1021.1 ± 2.2 kg/m3
speed of sound ([3]; x2 = 0.848): 1420.5 ± 6.8 m/s
mass density ([3]; x2 = 0.9246): 1054.7 ± 2.3 kg/m3
speed of sound ([3]; x2 = 0.9246): 1448.5 ± 6.9 m/s
refractive index ([4]; x2 = 0): 1.4134 ± 0.0008
refractive index ([4]; x2 = 0.1336): 1.4149 ± 0.0008
refractive index ([4]; x2 = 0.2712): 1.4185 ± 0.0008
refractive index ([4]; x2 = 0.3808): 1.4216 ± 0.0008
refractive index ([4]; x2 = 0.4814): 1.4259 ± 0.0008
refractive index ([4]; x2 = 0.5762): 1.4311 ± 0.0008
refractive index ([4]; x2 = 0.666): 1.4372 ± 0.0007
refractive index ([4]; x2 = 0.765): 1.4448 ± 0.0007
refractive index ([4]; x2 = 0.848): 1.4535 ± 0.0007
refractive index ([4]; x2 = 0.9246): 1.4629 ± 0.0007
SMILES: CCCCCCO [hexan-1-ol] + C[S+](C)[O-]
